Converted amounts (≈) assume the structure as drawn. Where two headings read alike, the source gives them in different places.
How the values were obtained:
[1] = tested on: human immunodeficiency virus-infected cell system; settings: cited from earlier work
[2] = tested on: phosphatidylcholine biosynthesis; settings: cited from earlier work
[3] = tested on: Trypanosoma cruzi; settings: cited from earlier work
[4] = tested on: Leishmania major; settings: 30 μg/mL; cited from earlier work
[5] = tested on: Streptococcus β hemolyticus; settings: Clinical MDR strain; cited from earlier work
[6] = Candida neoformans; cited from earlier work
[7] = tested on: Crithidia fasciculata; settings: 30 μg/mL; cited from earlier work
[8] = tested on: Candida parapsilosis; settings: cited from earlier work
[9] = tested on: Acinetobacter baumanii; settings: Clinical isolate; cited from earlier work
[10] = tested on: methicillin resistant Staphylococcus aureus, multidrug-resistant enterotoxicogenic Escherichia coli, Enterococcus, Shigella dysenteriae, S. flexneni and S. …; settings: strains resistant to antibiotics; cited from earlier work
[11] = tested on: Salmonella typhimurium; settings: 0.2 to 0.5 mM; cited from earlier work
[12] = tested on: Staphylococcus aureus; settings: cited from earlier work
[13] = tested on: alcohol dehydrogenases; assay: Inhibition of thiol-containing enzymes of the amoeba parasite; format: biochemical
[14] = tested on: Proteus mirabilis; settings: cited from earlier work
[15] = tested on: Candida tropicalis; settings: cited from earlier work
[16] = tested on: mucoid strains of Pseudomonas aeruginosa, Streptococcus β hemnolyticus and Enterococcus faecium; settings: cited from earlier work
[17] = biological target: T1, NAD-dependent alcohol dehydrogenase (Equus caballus, UniProt P00327); assay: Inhibition of thiol enzymes by allicin; format: biochemical, horse; settings: could be reactivated with thiol-containing compounds
T1 construct: the NAD-dependent alcohol dehydrogenase from horse liver; from tissue; host or cells: horse liver
T1 sequence (P00327 2-375 limits assumed): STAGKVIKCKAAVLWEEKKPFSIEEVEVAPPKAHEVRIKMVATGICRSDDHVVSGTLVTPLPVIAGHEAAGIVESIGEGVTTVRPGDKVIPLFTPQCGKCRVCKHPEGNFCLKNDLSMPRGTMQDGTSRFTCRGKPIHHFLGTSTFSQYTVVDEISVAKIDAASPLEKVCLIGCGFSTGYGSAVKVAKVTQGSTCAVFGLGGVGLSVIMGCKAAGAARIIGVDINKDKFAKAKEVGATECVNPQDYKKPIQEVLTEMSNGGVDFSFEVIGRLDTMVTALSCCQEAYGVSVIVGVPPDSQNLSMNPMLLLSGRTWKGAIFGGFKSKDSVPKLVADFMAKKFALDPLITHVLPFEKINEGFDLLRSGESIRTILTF

[18] = biological target: thiol-protease papain (Carica papaya, UniProt P00784); assay: Inhibition of thiol enzymes by allicin; format: biochemical; settings: could be reactivated with thiol-containing compounds
Sequence of thiol-protease papain (P00784 134-345): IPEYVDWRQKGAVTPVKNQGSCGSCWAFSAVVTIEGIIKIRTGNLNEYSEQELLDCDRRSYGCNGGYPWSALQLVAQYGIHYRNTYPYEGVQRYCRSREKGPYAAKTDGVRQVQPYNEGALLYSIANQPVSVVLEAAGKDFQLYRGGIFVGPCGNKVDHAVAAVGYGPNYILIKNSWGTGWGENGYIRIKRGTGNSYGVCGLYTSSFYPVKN

[19] = tested on: Streptococcus progenies; settings: Sensitive; cited from earlier work
[20] = tested on: thioredoxin reductases; assay: Inhibition of thiol-containing enzymes of the amoeba parasite; format: biochemical
[21] = tested on: Torulopsis glabrata; settings: cited from earlier work
[22] = tested on: Klebsiella pneumoniae; settings: Clinical isolate; cited from earlier work
[23] = biological target: acetyl-CoA-forming system, consisting of acetate kinase and phosphotransacetyl-CoA synthetase; settings: cited from earlier work
[24] = tested on: trophozoites of E. histolytica; settings: 5 μg/mL, in vitro; cited from earlier work
[25] = tested on: Candida albicans; settings: cited from earlier work
[26] = tested on: Candida krusei; settings: cited from earlier work
[27] = tested on: tissue-cultured mammalian cells; settings: cited from earlier work
[28] = biological target: NADP-dependent alcohol dehydrogenase (Thermoanaerobacter brockii, UniProt P14941); assay: Inhibition of thiol enzymes by allicin; format: biochemical, Thermoanaerobium brockii; settings: could be reactivated with thiol-containing compounds
Sequence of NADP-dependent alcohol dehydrogenase (P14941 whole entry): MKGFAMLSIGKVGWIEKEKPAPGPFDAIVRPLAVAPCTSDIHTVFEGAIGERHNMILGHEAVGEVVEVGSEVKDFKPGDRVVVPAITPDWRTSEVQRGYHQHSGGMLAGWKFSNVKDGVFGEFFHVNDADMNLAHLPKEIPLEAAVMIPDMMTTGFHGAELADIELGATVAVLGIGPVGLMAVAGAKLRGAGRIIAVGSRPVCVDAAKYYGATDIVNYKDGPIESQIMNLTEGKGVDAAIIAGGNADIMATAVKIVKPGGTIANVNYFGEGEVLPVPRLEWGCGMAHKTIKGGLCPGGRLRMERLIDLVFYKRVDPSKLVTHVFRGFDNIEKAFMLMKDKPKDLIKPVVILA

[29] = tested on: tissue-cultured mammalian cells
[30] = tested on: Leptornonas colosoma; settings: 30 μg/mL; cited from earlier work
[31] = tested on: Entainoeba histolytica; settings: cited from earlier work
[32] = tested on: Giardia lamblia; settings: 30 μg/mL; cited from earlier work
[33] = tested on: cysteine proteinases; assay: Inhibition of thiol-containing enzymes of the amoeba parasite; format: biochemical
[34] = tested on: S. fiexneri Y; settings: rabbit; cited from earlier work
[35] = tested on: Candida; settings: pure allicin; cited from earlier work
[36] = tested on: Enterococcus faecium; settings: Clinical MDR strain; cited from earlier work
[37] = tested on: Escherichia coli; settings: cited from earlier work
[38] = tested on: Acetate incorporation into fatty acids of isolated plastids; settings: read-out: 50% inhibitory concentration (I 50 value); cited from earlier work
[39] = tested on: Pseudomonas aeruginosa; settings: cited from earlier work
[40] = alliin in itself; cited from earlier work

Compound: C=CCSSC=CC[S+]([O-])CC=C (mixture of isomers) [ajoene]
- integrin-dependent processes [1]: block the integrin-dependent processes
- phosphatidylcholine biosynthesis [2]: inhibit phosphatidylcholine biosynthesis
- proliferation of Trypanosoma cruzi [3]: inhibit the proliferation

Compound: C=CCS[S+]([O-])CC=C (centres unmarked) [allicin]
- growth inhibition [4]: very efficiently inhibited
- Allicin Concentration (LD50 ug/ml) [5]: >100 µg/mL
- Allicin concentration MIC [6]: 0.3 µg/mL
- growth inhibition [7]: very efficiently inhibited
- Allicin concentration MIC [8]: 0.15 µg/mL
- Allicin Concentration (LD50 ug/ml) [9]: 15 µg/mL
- sensitivity to allicin [10]: sensitive
- effect on DNA and protein synthesis [11]: partially inhibit
- effect on RNA synthesis [11]: immediate
- Allicin Concentration (LD50 ug/ml) ([12]; Methicillin resistant): 12 µg/mL
- Allicin Concentration (LD50 ug/ml) ([12]; Sensitive): 12 µg/mL
- concentration at which inhibition was observed [13]: > 10 µg/mL
- Allicin Concentration (LD50 ug/ml) ([14]; Prloteus marbles, Sensitive): 15 µg/mL
- Allicin Concentration (LD50 ug/ml) ([14]; Proteus mirabilis, Clinical MDR strain): >30 µg/mL
- Allicin concentration MIC [15]: 0.3 µg/mL
- sensitivity to allicin [16]: resistant
- inhibition of NAD-dependent alcohol dehydrogenase from horse liver [17]: irreversibly inhibited
- inhibition of papain [18]: irreversibly inhibited
- Allicin Concentration (LD50 ug/ml) [19]: 3 µg/mL
- concentration at which inhibition was observed [20]: > 10 µg/mL
- Allicin concentration MIC ([21]; Clinical isolates): 1.9 µg/mL
- Allicin concentration MIC [21]: 0.3 µg/mL
- Allicin Concentration (LD50 ug/ml) [22]: 8 µg/mL
- kind of inhibition [23]: noncovalent and reversible
- inhibition of virulence of trophozoites [24]: 90%
- Allicin concentration MIC ([25]; Clinical isolates): 0.8 µg/mL
- Allicin concentration MIC [25]: 0.3 µg/mL
- Allicin concentration MIC [26]: 0.3 µg/mL
- concentration at which some toxicity towards tissue-cultured mammalian cells was observed [27]: above 100 μM
- inhibition of NADP-dependent alcohol dehydrogenase from Thermoanaerobium brockii [28]: irreversibly inhibited
- concentration toxic to tissue-cultured mammalian cells [29]: > 100 µg/mL
- growth inhibition [30]: very efficiently inhibited
- concentration that totally inhibits the growth of amoeba cultures [31]: 30 µg/mL
- growth inhibition [32]: very efficiently inhibited
- concentration at which inhibition was observed [33]: > 10 µg/mL
- antibacterial activity in vivo [34]: in vivo antibacterial activity
- minimum inhibitory concentration [35]: 7 µg/mL (≈ 43.1 µM)
- Allicin Concentration (LD50 ug/ml) [36]: >100 µg/mL
- Allicin Concentration (LD50 ug/ml) ([37]; Multidrug resistant MDR): 15 µg/mL
- Allicin Concentration (LD50 ug/ml) ([37]; Sensitive to antibiotics): 15 µg/mL
- IC50 [38]: < 10 mM
- Allicin Concentration (LD50 ug/ml) ([39]; MDR mucoid strain): >100 µg/mL
- Allicin Concentration (LD50 ug/ml) ([39]; Sensitive to cefprozil): 15 µg/mL

Compound: (+)-S-allyl-L-cysteine-sulfoxide [alliin]
- antimicrobial activity [40]: no antimicrobial activity

— patent US20070154581A1, “Composition and method for enhancing or stimulating the immune system” (priority 2005, published 2007)
